Reference: article PMC6011181, “The Mechanism of Acetyl Transfer Catalyzed by Mycobacterium tuberculosis GlmU” (Biochemistry, 2018)
Where two headings read alike, the source gives them in different places.

Assays:
GlmU [1] = biological target: T1, GlmU (Mycobacterium tuberculosis, UniProt P9WMN3); test: biochemical; format: binding
GlmU [2] = biological target: T1, GlmU; test: acetyltransferase inhibition assay; format: biochemical
GlmU [3] = biological target: T1, GlmU; test: acetyltransferase dead-end inhibition, initial velocities versus Ac-CoA; format: biochemical; settings: read-out: Kis
GlmU [4] = biological target: T1, GlmU; test: acetyltransferase DTP absorbance assay (CoA-SH release); format: biochemical
GlmU [5] = biological target: T1, GlmU; test: biochemical; settings: read-out: Kis
GlmU [6] = biological target: T1, GlmU; test: acetyltransferase dead-end inhibition, initial velocities versus GlcN-1P; format: biochemical; settings: read-out: Kis
GlmU [7] = biological target: T1, GlmU; format: biochemical
His374 = His374 (UniProt position 374, GTKVPHLTYVG); test: kinetics; settings: 30 °C (stated for the acetyltransferase assay; not restated for the pH-rate studies); constant-ionic-strength three-component buffer (value not stated); 10 mM MgCl2; Vmax conditions (enzyme saturated with Ac-CoA and GlcN-1P), Mg2+ present
[8] = test system: N[C@H]1[C@@H](OP(=O)(O)O)O[C@H](CO)[C@@H](O)[C@@H]1O; test: purified protein; settings: co-substrate Ac-CoA saturating, pH 7.5, 30 °C, 10 mM MgCl2
[9] = test system: CC(=O)N[C@H]1[C@@H](OP(=O)(O)O)O[C@H](CO)[C@@H](O)[C@@H]1O; test: purified protein; settings: co-substrate UTP saturating, pH 7.5, 30 °C, 10 mM MgCl2, uridylyltransferase site
[10] = test system: O=c1ccn([C@@H]2O[C@H](COP(=O)(O)OP(=O)(O)OP(=O)(O)O)[C@@H](O)[C@H]2O)c(=O)[nH]1; test: purified protein; settings: co-substrate GlcNAc-1P saturating, pH 7.5, 30 °C, 10 mM MgCl2, uridylyltransferase site
[11] = test system: N[C@H]1[C@@H](OP(=O)(O)OP(=O)(O)OC[C@H]2O[C@@H](n3ccc(=O)[nH]c3=O)[C@H](O)[C@@H]2O)O[C@H](CO)[C@@H](O)[C@@H]1O; test: purified protein; settings: co-substrate Ac-CoA saturating, pH 7.5, 30 °C, 10 mM MgCl2, acetyltransferase site
[12] = test system: CC(=O)SCCNC(=O)CCNC(=O)[C@H](O)C(C)(C)COP(=O)(O)OP(=O)(O)OC[C@H]1O[C@@H](n2cnc3c(N)ncnc32)[C@H](O)[C@@H]1OP(=O)(O)O; test: purified protein; settings: co-substrate GlcN-1P saturating, pH 7.5, 30 °C, 10 mM MgCl2
[13] = Km concentrations of Ac-CoA and GlcN-1P, pH 7.5, 30 °C, 10 mM MgCl2, acetyltransferase site, read-out: no inhibition at ≤10 mM

T1 sequence (P9WMN3 whole entry, looked up): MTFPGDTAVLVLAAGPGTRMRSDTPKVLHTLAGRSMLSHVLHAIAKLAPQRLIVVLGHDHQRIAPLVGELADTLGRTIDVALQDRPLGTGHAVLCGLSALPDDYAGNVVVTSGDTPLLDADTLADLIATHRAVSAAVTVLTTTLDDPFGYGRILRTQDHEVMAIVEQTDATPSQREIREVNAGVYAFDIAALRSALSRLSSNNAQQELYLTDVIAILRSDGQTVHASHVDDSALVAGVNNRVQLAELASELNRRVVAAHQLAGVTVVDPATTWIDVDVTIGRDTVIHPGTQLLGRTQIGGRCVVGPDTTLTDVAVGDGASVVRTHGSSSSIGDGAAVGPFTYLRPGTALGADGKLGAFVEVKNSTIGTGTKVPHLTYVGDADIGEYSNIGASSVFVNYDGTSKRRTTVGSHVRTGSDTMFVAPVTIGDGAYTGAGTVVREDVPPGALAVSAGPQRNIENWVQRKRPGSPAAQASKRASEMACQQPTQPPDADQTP

## CC(=O)SCCNC(=O)CCNC(=O)[C@H](O)C(C)(C)COP(=O)(O)OP(=O)(O)OC[C@H]1O[C@@H](n2cnc3c(N)ncnc32)[C@H](O)[C@@H]1OP(=O)(O)O [Ac-CoA]
GlmU [1]; read-out: Kd (μM) ^b
  Kd: 250 ± 25 µM

## CCCC(=O)SCCNC(=O)CCNC(=O)[C@H](O)C(C)(C)COP(=O)(O)OP(=O)(O)OC[C@H]1O[C@@H](n2cnc3c(N)ncnc32)[C@H](O)[C@@H]1OP(=O)(O)O [Bu-CoA]
GlmU [2]; read-out: IC50 (mM) ^b, ^c
  IC50: 1 ± 0.03 mM
GlmU [1]; read-out: Kd (mM) ^c
  Kd: 3800 ± 800 µM
GlmU [3]
  Ki: 350 ± 30 µM

## CC(C)(COP(=O)(O)OP(=O)(O)OC[C@H]1O[C@@H](n2cnc3c(N)ncnc32)[C@H](O)[C@@H]1OP(=O)(O)O)[C@@H](O)C(=O)NCCC(=O)NCCS [CoA-SH]
GlmU [1]; read-out: Kd (mM) ^c
  Kd: 700 ± 130 µM
GlmU [4]
  IC50: 0.3 ± 0.01 mM
GlmU [5]
  Ki: 150 ± 15 µM

## C/C=C/C(=O)SCCNC(=O)CCNC(=O)[C@H](O)C(C)(C)COP(=O)(O)OP(=O)(O)OC[C@H]1O[C@@H](n2cnc3c(N)ncnc32)[C@H](O)[C@@H]1OP(=O)(O)O [Cro-CoA]
GlmU [2]; read-out: IC50 (mM) ^b, ^c
  IC50: 1 ± 0.15 mM

## O=P(O)(O)O[C@H]1O[C@H](CO)[C@@H](O)[C@H](O)[C@H]1O [Glc-1P]
GlmU [2]; read-out: IC50 (mM) ^b, ^c
  IC50: 5 ± 0.65 mM
GlmU [1]; read-out: Kd
  Kd: 1700 ± 400 µM
GlmU [6]
  Ki: 4.1 ± 0.6 mM

## N[C@H]1[C@@H](OP(=O)(O)O)O[C@H](CO)[C@@H](O)[C@@H]1O [GlcN-1P]
GlmU [7]
  Kd: in the presence of high concentrations of the second substrate, the Kd values for the complex

## N[C@H]1C(O)O[C@H](COP(=O)(O)O)[C@@H](O)[C@@H]1O (stereo partly shown) [GlcN-6P]
GlmU [2]; Km concentrations of Ac-CoA and GlcN-1P, pH 7.5, 30 °C, 10 mM MgCl2, read-out: IC50 (mM) ^b, ^c
  IC50: 10 ± 0.89 mM

## CC(C)C(=O)SCCNC(=O)CCNC(=O)[C@H](O)C(C)(C)COP(=O)(O)OP(=O)(O)OC[C@H]1O[C@@H](n2cnc3c(N)ncnc32)[C@H](O)[C@@H]1OP(=O)(O)O [IsoBu-CoA]
GlmU [2]; read-out: IC50 (mM) ^b, ^c
  IC50: 2 ± 0.21 mM

## CC(C)(COP(=O)(O)OP(=O)(O)OC[C@H]1O[C@@H](n2cnc3c(N)ncnc32)[C@H](O)[C@@H]1OP(=O)(O)O)[C@@H](O)C(=O)NCCC(=O)NCCSC(=O)CC(=O)O [Mlo-CoA]
GlmU [2]; read-out: IC50 (mM) ^b, ^c
  IC50: 2 ± 0.59 mM

## CC(=O)N[C@H]1C(O)O[C@H](CO)[C@H](O)[C@@H]1O (stereo partly shown) [N-acetyl-galactosamine]
GlmU [2]; [13]
  IC50: > 10 mM

## CC(=O)N[C@@H]1C(O)O[C@H](CO)[C@@H](O)[C@@H]1O (stereo partly shown) [N-acetyl-mannosamine]
GlmU [2]; [13]
  IC50: > 10 mM

## CCC(=O)SCCNC(=O)CCNC(=O)[C@H](O)C(C)(C)COP(=O)(O)OP(=O)(O)OC[C@H]1O[C@@H](n2cnc3c(N)ncnc32)[C@H](O)[C@@H]1OP(=O)(O)O [Pro-CoA]
GlmU [1]; read-out: Kd (μM) ^b
  Kd: 500 ± 100 µM

## O=P(O)(O)OC[C@H]1OC(O)[C@H](O)[C@@H](O)[C@@H]1O (stereo partly shown) [glucose 6-phosphate]
GlmU [2]; [13]
  IC50: > 10 mM

## O=P(O)(O)O[C@H]1O[C@H](CO)[C@@H](O)[C@H](O)[C@@H]1O [mannose 1-phosphate]
GlmU [2]; read-out: no inhibition at ≤10 mM
  IC50: > 10 mM

## O=P(O)(O)OC[C@H]1OC(O)[C@@H](O)[C@@H](O)[C@@H]1O (stereo partly shown) [mannose 6-phosphate]
GlmU [2]; [13]
  IC50: > 10 mM

## Bifunctional N-acetyltransferase/uridylyltransferase GlmU (Mycobacterium tuberculosis H37Rv)
His374
  pKa: 6.7 ± 0.1

## GlmU (Mycobacterium tuberculosis H37Rv)
[8]
  Km: 290 ± 31 µM
[9]
  Km: 30 ± 5 µM
[10]
  Km: 8 ± 0.8 µM
  kcat: 120 ± 3 s⁻¹
  kcat/Km: 1.5e+07 ± 3.8e+06 M⁻¹ s⁻¹
[11]
  Km: 9.7 ± 0.6 mM
  kcat: 2.04 ± 0.06 s⁻¹
  kcat/Km: 220 ± 170 M⁻¹ s⁻¹
[12]
  Km: 250 ± 8 µM
